Laboratory results published in patent US8765946B2, “Methods of preparing and using quinazoline and quinoline derivatives” (priority 2006, dated 2014).

What was measured:
[1] = biological target: T1, A431 cells EGFR-TK phosphorylation stimulated by EGF (Homo sapiens, UniProt P00533); test: Inhibition of cellular EGFR-TK phosphorylation stimulated by EGF in A431 cells; type: cell-based; conditions: for inhibition at 3 µM: A-431, concentration of 3 μM, A431 cells, EGF stimulated, one-time measurement at a single concentration (preliminary selection), NA = No activity, read-out: Inhibition Percent (%)
T1 construct: against A431 cells EGFR-TK; endogenous in cells; host or cells: A431 cells
Procedure: Inhibition Experiment of Cellular Epidermal Growth Factor Receptor Tyrosine Kinase
1) A431 cells were cultured in a medium which was prepared by adding 10% FCS into another medium comprising 50% DMEM and 50% F12.
2) A431 cells grown in six-well plates were cultured in a serum-free medium for 24 hours. During the 24 hour period the medium was replenished once after 12 hours.
3) A solution containing a compound to be assessed was added the A431 cells and the cells were cultured for 2 hours, supplemented twice by a medium free of the compound, and then EGF (100 ng/well) was added, and cultured for 5 minutes.
4) A431 cell homogenate was prepared by Laemili buffer which comprised 2% sodium dodecyl sulfonate (SDS), 5% 2-mercaptoethanol, 10% glycerol and 5 mM Tris (pH 6.8).
(§1) 5) The A431 cell homogenate was heated for 5 minutes at 100° C.
6) Proteins in the A431 cell homogenates were separated by PAGE and transferred onto a nitrocellulose membrane, and an infrared reading was obtained.

[2] = biological target: T1, A431 cells EGFR-TK phosphorylation stimulated by EGF; test: Irreversible inhibition of cellular EGFR-TK (A431 cells, inhibition and recovery); type: cell-based; conditions: for Inhibition percent(%): A431 cells, 2 hours with compound, supplemented twice by compound-free medium, then EGF; for Activity (irreversible or reversible inhibitor): A431 cellular model test
Procedure: Irreversible Inhibition of Cellular Epidermal Growth Factor Receptor Tyrosine Kinase (EGFR-TK)
1) A431 cells were cultured in a medium prepared by adding 10% FCS into another medium comprising 50% DMEM and 50% F12.
2) The A431 cells grown in six-well plates were cultured in a serum-free medium for 24 hours, during the period the medium was replenished once after 12 hours.
3) A solution containing a compound to be assessed was added to the A431 cells and cultured for 2 hours, supplemented twice by a medium free of the compound, and then EGF (100 ng/well) was added, and cultured for 5 minutes.
4) A431 cell homogenate was prepared by Laemili buffer which comprised 2% sodium dodecyl sulfonate (SDS), 5% 2-mercaptoethanol, 10% glycerol and 5 mM Tris; the pH value is 6.8.
as §1
6) Proteins in the A431 cell homogenates were separated by PAGE, transferred onto a nitrocellulose membrane, and an infrared reading was obtained.

A431 cells = test: Cell growth inhibition assay (MTS assay), A431; type: cell-based; conditions: Homo sapiens, A-431; A431 cells; MTS, 48 hours; read-out: Growth inhibition activity EC50
[3] = biological target: T2, BT474 cells Her-2 receptor TK phosphorylation stimulated by Her-2 (Homo sapiens, UniProt P04626); test: Inhibition of BT474 cells Her-2 receptor TK phosphorylation; type: cell-based
T2 construct: against BT474 cells; endogenous in cells; host or cells: BT474 cells
Procedure: Following literature procedured, inhibitory activity of representative compounds against BT474 cells Her-2 receptor TK phosphorylation stimulated by Her-2 was measured, and partial results are listed in Table 6.

[4] = test system: colorectal cancer LoVo cells; test: Cell growth inhibition assay (MTS assay), LoVo; type: cell-based; conditions: Homo sapiens, 48 hours
BT474 cells = test: Cell growth inhibition assay (MTS assay), BT474; conditions: Homo sapiens, BT-474, 48 h, read-out: Growth inhibition activity (EC50) BT474
Procedure: (§2) Cell Growth Inhibition Assay (MTS Assay)
(§3) A431: human epithelial adenocarcinoma cell strain; LoVo: human colorectal cancer cell strain; BT474: breast cancer; SK-Br-3: breast cancer; SIT solution (SIGMA); RPMI1640 culture solution; phosphoric acid buffer; Dimethyl Sulphoxide (DMSO); MTS solution (Promega), 96 well cell culture plate, representative anti-cancer compounds.
(§4) The cells were cultured overnight under the condition of 5% CO2 and 37° C. The next day, representative anti-cancer compounds (between 3 and 10 mM) were dissolved by dimethyl sulphoxide (DMSO) as a mother solution. Adriamycin was used as positive control, DMSO was used as negative control. According to experimental design, the mother solution was diluted and added to the 96 well cell culture plate, cultured for 48 hours under the condition of 5% CO2 and 37° C. Subsequently, 20 μL of MTS solution was added to each well of the 96 well cell culture plate and cultured for another 2 to 4 hours under the condition of 5% CO2 and 37° C. Absorbance was read at 490 nm wavelength, and converted into cell survival rate.
(§5) For each concentration, there two measurements were taken and the average was obtained.

SK-Br-3 cells = test: Cell growth inhibition assay (MTS assay), SK-Br-3; conditions: Homo sapiens, SK-BR-3, 48 h, read-out: Growth inhibition activity (EC50) SK-Br-3
Procedure: as §2, §3, §4, §5

[5] = A431 cells EGFR-TK phosphorylation stimulated by EGF (Table 4)
[6] = A431 cells EGFR-TK phosphorylation stimulated by EGF (Table 5)

T1 sequence (P00533 25-1210): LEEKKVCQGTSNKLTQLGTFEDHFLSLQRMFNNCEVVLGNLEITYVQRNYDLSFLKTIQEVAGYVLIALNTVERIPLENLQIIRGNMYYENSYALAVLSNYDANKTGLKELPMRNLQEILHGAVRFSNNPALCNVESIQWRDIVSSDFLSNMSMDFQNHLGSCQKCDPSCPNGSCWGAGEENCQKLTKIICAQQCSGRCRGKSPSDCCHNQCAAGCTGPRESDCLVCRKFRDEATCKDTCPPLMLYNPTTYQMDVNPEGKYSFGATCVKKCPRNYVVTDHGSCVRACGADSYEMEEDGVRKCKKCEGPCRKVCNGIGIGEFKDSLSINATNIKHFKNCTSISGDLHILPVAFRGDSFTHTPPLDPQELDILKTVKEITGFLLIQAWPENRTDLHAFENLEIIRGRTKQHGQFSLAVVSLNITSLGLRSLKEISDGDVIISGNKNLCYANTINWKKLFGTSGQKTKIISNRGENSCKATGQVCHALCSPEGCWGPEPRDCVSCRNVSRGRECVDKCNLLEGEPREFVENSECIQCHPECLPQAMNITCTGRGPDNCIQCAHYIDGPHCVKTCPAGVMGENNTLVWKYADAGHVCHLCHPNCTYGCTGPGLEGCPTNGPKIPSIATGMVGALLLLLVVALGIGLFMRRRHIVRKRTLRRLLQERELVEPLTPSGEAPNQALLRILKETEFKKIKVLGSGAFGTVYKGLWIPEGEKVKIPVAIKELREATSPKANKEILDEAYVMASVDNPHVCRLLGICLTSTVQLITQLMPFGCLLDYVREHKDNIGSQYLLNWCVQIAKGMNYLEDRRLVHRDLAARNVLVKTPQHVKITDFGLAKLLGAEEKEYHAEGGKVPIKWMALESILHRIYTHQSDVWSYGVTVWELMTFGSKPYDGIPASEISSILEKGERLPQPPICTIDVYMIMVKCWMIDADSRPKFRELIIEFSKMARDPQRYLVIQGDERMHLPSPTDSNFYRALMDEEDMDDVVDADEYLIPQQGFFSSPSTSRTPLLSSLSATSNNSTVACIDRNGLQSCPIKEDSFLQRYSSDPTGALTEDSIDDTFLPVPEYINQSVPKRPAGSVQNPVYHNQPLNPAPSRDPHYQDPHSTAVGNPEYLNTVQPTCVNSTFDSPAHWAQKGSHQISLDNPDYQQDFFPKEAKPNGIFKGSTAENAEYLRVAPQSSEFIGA
T2 sequence (P04626 23-1255): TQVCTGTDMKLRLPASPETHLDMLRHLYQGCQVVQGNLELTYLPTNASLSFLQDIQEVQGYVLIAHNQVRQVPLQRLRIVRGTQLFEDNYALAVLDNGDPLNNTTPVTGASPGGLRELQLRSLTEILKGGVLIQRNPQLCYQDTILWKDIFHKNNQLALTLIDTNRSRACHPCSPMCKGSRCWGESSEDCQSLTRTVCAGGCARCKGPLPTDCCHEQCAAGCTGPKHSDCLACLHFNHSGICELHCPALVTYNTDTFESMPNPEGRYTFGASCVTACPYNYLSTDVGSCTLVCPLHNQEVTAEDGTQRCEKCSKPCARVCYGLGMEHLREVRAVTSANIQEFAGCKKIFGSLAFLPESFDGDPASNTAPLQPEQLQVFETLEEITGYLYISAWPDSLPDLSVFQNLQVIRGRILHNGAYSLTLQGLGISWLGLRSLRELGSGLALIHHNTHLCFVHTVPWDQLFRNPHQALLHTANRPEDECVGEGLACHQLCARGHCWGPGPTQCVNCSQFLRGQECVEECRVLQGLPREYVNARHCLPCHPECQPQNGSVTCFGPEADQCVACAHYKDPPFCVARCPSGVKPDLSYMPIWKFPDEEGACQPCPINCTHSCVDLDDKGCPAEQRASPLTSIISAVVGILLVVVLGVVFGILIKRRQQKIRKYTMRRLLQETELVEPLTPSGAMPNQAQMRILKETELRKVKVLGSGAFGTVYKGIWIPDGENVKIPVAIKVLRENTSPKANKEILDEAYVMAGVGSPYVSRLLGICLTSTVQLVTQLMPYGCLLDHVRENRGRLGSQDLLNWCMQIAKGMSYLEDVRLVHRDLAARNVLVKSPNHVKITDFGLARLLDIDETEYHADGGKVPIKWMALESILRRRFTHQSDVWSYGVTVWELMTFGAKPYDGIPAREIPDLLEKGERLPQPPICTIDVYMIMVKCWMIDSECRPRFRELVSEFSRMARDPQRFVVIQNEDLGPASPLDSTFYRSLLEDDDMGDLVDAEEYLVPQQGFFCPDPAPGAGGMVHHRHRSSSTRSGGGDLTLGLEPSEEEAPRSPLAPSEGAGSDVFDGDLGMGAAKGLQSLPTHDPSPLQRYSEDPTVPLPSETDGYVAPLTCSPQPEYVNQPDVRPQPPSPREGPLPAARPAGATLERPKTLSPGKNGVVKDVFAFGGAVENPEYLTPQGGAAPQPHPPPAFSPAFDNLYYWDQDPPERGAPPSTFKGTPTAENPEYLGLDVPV

EC50 [1, 5] [nM]	EC50 [1, 6] [nM]	inhibition at 3 µM [1] [%]	Inhibition percent(%) [2] [%]	Activity (irreversible or reversible inhibitor) [2]	EC50 (A431 cells) [nM]	EC50 [3] [nM]	EC50 [4] [nM]	EC50 (BT474 cells) [nM]	EC50 (SK-Br-3 cells) [nM]	Structure (SMILES)
90	90	87	78	Irreversible inhibitor	600					O=C(C=C1CCNCC1)Nc1ccc2ncnc(Nc3ccc(F)c(Cl)c3)c2c1 [Example 32, N-(4-(3-chloro-4-fluorophenylamino)quinazolin-6-yl)-2-(piperidin-4-ylidene)acetamide]
38	38	94	89	Irreversible inhibitor	100					O=C(C=C1CCNCC1)Nc1ccc2ncnc(Nc3cccc(Br)c3)c2c1 [Example 33, N-(4-(3-bromophenylamino)quinazolin-6-yl)-2-(piperidin-4-ylidene)acetamide]
		82			630	1700	8000	21500	2310	COCCN1CCC(=CC(=O)Nc2cc3c(Nc4ccc(F)c(Cl)c4)ncnc3cc2OC)CC1 [Example 73, N-(4-(3-chloro-4-fluorophenylamino)-7-methoxyquinazolin-6-yl)-2-(1-(2-methoxyethyl)piperidin-4-ylidene)acetamide]
